Assay results: patent US5840721A, “Imidazole derivatives as MDR modulators” (Ontogen Corporation, priority 1997, dated 1998)

Legend:
CEM/VLB1000 cell line [1] = assay: Cytotoxicity potentiation: enhancement of vinblastine cytotoxicity in MDR cell line (alamar blue); assay type: cell-based, human; settings: midpoint of minimum and maximum cytotoxicity induced by 3-5 μg/mL vinblastine and compound, 48 hours incubation, alamar blue 24 hours, read-out: Cytotocicity Potentiation (EC50)
Experimental: Multidrug-resistant cell lines are easily obtainable for in vitro determination of drug sensitization by compounds of the present invention. In vitro potentiation of antineoplastic cytotoxicity by the imidazole derivatives of the present invention was measured in both CEM/VLB1000 and SK/VLB1000 cell lines. The multidrug resistant cell lines were obtained from Dr. Victor Ling, Ontario Cancer Institute, Toronto, Canada. The CEM/VLB 1000 cell line was maintained as a suspension in minimum essential medium supplemented with 10% fetal bovine serum in a humidied atmosphere of 95% air and 5% CO2 while the SK/VLB 1000 cell line was maintained as adherent cells using the identical medium conditions as the CEM cells. The CEM/VLB 1000 cells were seeded at a density of 5×10^4 cells/well in a 96 well microtiter plate while the SK/VLB 1000 cell line was seeded at a density of 2,500 cells/well after trypsinization.

CEM/VLB1000 cell line [2] = assay: [3H]VLB accumulation in CEM/VLB1000 cells; assay type: cell-based; settings: Homo sapiens, midpoint of minimum and maximum increase in accumulation of 3H-vinblastine (275 nM), 3 hours at 37° C
Experimental: ^3 H-vinblastine accumulation was also measured in the CEM/VLB1000 cell line. Corning Easy-Wash 96 well plates were pretreated with PBS and 1% BSA for 60 minutes and then removed. CEM/VLB1000 cells were seeded at 2×10^5, 40 μL volume. Plates were incubated at 37° C. for 30-60 minutes prior to use. The reference reversing agent, verapamil, or the compound of the present invention was added to the well followed by addition of media containing ^3 H-vinblastine (final concentration=275nM). Plates were allowed to incubate for 3 hours at 37° C. Cells were harvested onto pretreated Wallace filtermats A (pretreated with 0.1% polyethyleneimine) using a TomTek harvester-96. After filtering, the filtermats were allowed to dry completely. Meltix B scintillant was then added to the filtermats. The filters were then placed in a 90° C. oven for approximately 3-5 minutes and then removed. Scintillant was allowed to solidify on the filtermats. Filtermats were then placed in sample bags and read on a Wallace BetaPlate scintillation counter. The effects of compounds of the present invention in the cytotoxicity potentiation assays and vinblastine (VLB) accumulation assay are given in the Table below:
^2 Values presented are the midpoint (EC50 ) of the minimum and
maximum increase in accumulation of ^3 Hvinblastine caused by the
specfic compound of the present invention.

Question: Which EC50 (CEM/VLB1000 cell line [1]; Homo sapiens) does the source give for `CCOC/C=C/c1ccc(-c2nc(-c3ccc(N(C)C)cc3)c(-c3ccc(N(C)C)cc3)[nH]2)cc1` [Example 75, 2-[4-(3-ethoxy-trans-1-propen-1-yl)phenyl]-4,5-bis (4-N,N-dimethylaminophenyl) imidazole] here?
Answer: 98 nM

Question: What about the EC50 (CEM/VLB1000 cell line [2]) of the same compound?
Answer: 1200 nM

Question: `CN(C)c1ccc(-c2nc(-c3ccc(/C=C/CO)cc3)[nH]c2-c2ccc(N(C)C)cc2)cc1` [Example 113, 2-[4-(3-hydroxy-trans-1-propen-1-yl)phenyl]-4,5-bis (4-N,N-dimethylaminophenyl) imidazole] was tested. Which EC50 (CEM/VLB1000 cell line [1]; Homo sapiens) did it give?
Answer: 410 nM

Question: And the EC50 (CEM/VLB1000 cell line [2])?
Answer: 3900 nM

Question: `CCOC/C=C/c1ccc(-c2nc(-c3ccc(OCC)cc3)c(-c3ccc(OCC)cc3)[nH]2)cc1` [Example 103, 2-[4-(3-ethoxy-trans-1-propen-1-yl)phenyl]-4,5-bis (4-diethoxyphenyl) imidazole] was tested. Which EC50 (CEM/VLB1000 cell line [1]; Homo sapiens) did it give?
Answer: 240 nM

Question: For `CCOC/C=C/c1ccc(-c2nc(-c3ccc(N4CCOCC4)cc3)c[nH]2)cc1` [Example 125, 2-[4-(3-ethoxy-trans-1-propen-1-yl)phenyl]-4-(4-N-morpholinophenyl) imidazole], which EC50 (CEM/VLB1000 cell line [1]; Homo sapiens) is on record?
Answer: 370 nM

Question: `CCOC/C=C/c1ccc(-c2nc(-c3ccc(OC(C)C)cc3)c(-c3ccc(OC(C)C)cc3)n2CCCn2ccnc2)cc1` [Example 107, 1-(3-imidazole-1-yl-propyl)-2-[4-(3-ethoxy-trans-1-propen-1-yl)phenyl]-4,5bis (4-diisopropyloxyphenyl) imidazole] was tested. Which EC50 (CEM/VLB1000 cell line [1]; Homo sapiens) did it give?
Answer: 490 nM

Question: How did the EC50 (CEM/VLB1000 cell line [1]; Homo sapiens) turn out when `CCOC(=O)c1cc(-c2ccc(-c3nc(-c4ccc(N(C)C)cc4)c(-c4ccc(N(C)C)cc4)[nH]3)cc2)no1` [Example 98, 2-[4-(5-ethylcarboxyisoxazol-3-yl)-phenyl]-4,5-bis (4-N,N-dimethylamainophenyl) imidazole] was run?
Answer: 600 nM

Question: Which EC50 (CEM/VLB1000 cell line [1]; Homo sapiens) does the source give for `CCOC/C=C/c1ccc(-c2nc(-c3ccc(OC)cc3)c(-c3ccc(OC)cc3)[nH]2)cc1` [Example 102, 2-[4-(3-ethoxy-trans-1-propen-1-yl)phenyl]-4,5-bis (4-dimethoxyphenyl) imidazole] here?
Answer: 350 nM

Question: Which EC50 (CEM/VLB1000 cell line [1]; Homo sapiens) does the source give for `CCOC/C=C/c1ccc(-c2nc(-c3ccc(OC)cc3)c[nH]2)cc1` [Example 109, 2-[4-(3-ethoxy-trans-1-propen-1-yl)phenyl]-4-(4-methoxyphenyl) imidazole] here?
Answer: 1850 nM

Question: For `CCCN(CCC)c1ccc(-c2c[nH]c(-c3ccc(/C=C/COCC)cc3)n2)cc1` [Example 122, 2-[4-(3-ethoxy-trans-1-propen-1-yl)phenyl]-4-(4-N,N-dipropylphenyl) imidazole], which EC50 (CEM/VLB1000 cell line [1]; Homo sapiens) is on record?
Answer: 280 nM

Question: Which EC50 (CEM/VLB1000 cell line [1]; Homo sapiens) does the source give for `CCOC/C=C/c1ccc(-c2nc(-c3ccc(OC)cc3)c(-c3ccc(OC)cc3)n2CCCn2ccnc2)cc1` [Example 105, 1-(3-imidazole-1-yl-propyl)-2-[4-(3-ethoxy-trans-1-propen-1-yl)phenyl]-4,5bis (4-dimethoxyphenyl) imidazole] here?
Answer: 650 nM

Question: For `COC(=O)[C@@H]1C[C@H]1c1ccc(-c2nc(-c3ccc(N(C)C)cc3)c(-c3ccc(N(C)C)cc3)[nH]2)cc1` (relative stereo) [Example 101], which EC50 (CEM/VLB1000 cell line [1]; Homo sapiens) is on record?
Answer: 200 nM

Question: With `CN(C)C/C=C/c1ccc(-c2nc(-c3ccc(N(C)C)cc3)c(-c3ccc(N(C)C)cc3)[nH]2)cc1` [Example 83, 2-[4-(3-N,N-dimethylamino-trans-1-propen-1-yl)phenyl]-4,5-bis (4-N,N-dimethylaminophenyl) imidazole] as the compound, how does the EC50 (CEM/VLB1000 cell line [1]; Homo sapiens) read?
Answer: 1300 nM

Question: Which EC50 (CEM/VLB1000 cell line [1]; Homo sapiens) does the source give for `CNc1ccc(-c2nc(-c3ccc(/C=C/c4nc5ccccc5o4)cc3)[nH]c2-c2ccc(N3CCCC3)cc2)cc1` [Example 60, 2-[trans-2-(2-benzoxazolyl)ethenylphenyl]-4-(4-N-methylaminophenyl)-5-(4-pyrrolidinophenyl) imidazole] here?
Answer: 450 nM

Question: `CCOC/C=C/c1ccc(-c2nc(-c3ccc(OCC)cc3)c(-c3ccc(OCC)cc3)n2CCCn2ccnc2)cc1` [Example 106, 1-(3-imidazole-1-yl-propyl)-2-[4-(3-ethoxy-trans-1-propen-1-yl)phenyl]-4,5bis (4-diethoxyphenyl) imidazole] was tested. Which EC50 (CEM/VLB1000 cell line [1]; Homo sapiens) did it give?
Answer: 380 nM

Question: `CNc1ccc(-c2[nH]c(-c3ccc(/C=C/C(=O)OC)cc3)nc2-c2ccc(N(CCOC)CCOC)cc2)cc1` [Example 69, 2-(trans-2-methoxycarbonyl-ethenylphenyl)-4-[4-N,N-di(2methoxyethyl)aminophenyl]-5-(4-N-methylaminophenyl) imidazole] was tested. Which EC50 (CEM/VLB1000 cell line [1]; Homo sapiens) did it give?
Answer: 330 nM

Question: How did the EC50 (CEM/VLB1000 cell line [1]) turn out when `CCN(CC)C/C=C/c1ccc(-c2nc(-c3ccc(N(C)C)cc3)c(-c3ccc(N(C)C)cc3)[nH]2)cc1` [Example 80, 2-[4-(3-N,N-diethylamino-trans-1-propen-1-yl)phenyl]-4,5-bis (4-N,N-dimethylaminophenyl) imidazole] was run?
Answer: 880 nM

Question: `CCOC/C=C/c1ccc(-c2nc(-c3ccc(N4CCCC4)cc3)c(-c3ccc(N4CCCC4)cc3)[nH]2)cc1` [Example 89, 2-[4-(3-ethoxy-trans-1-propen-1-yl)phenyl]-4,5-bis (4-pyrrolidinophenyl) imidazole] was tested. Which EC50 (CEM/VLB1000 cell line [1]; Homo sapiens) did it give?
Answer: 240 nM

Question: Which EC50 (CEM/VLB1000 cell line [1]; Homo sapiens) does the source give for `CCNc1ccc(-c2[nH]c(-c3ccc(/C=C/COCC)cc3)nc2-c2ccc(NC(C)C)cc2)cc1` [Example 120, 2-[4-(3-ethoxy-trans-1-propen-1-yl)phenyl]-4-(4-N-ethylaminophenyl)-5(4-N-isopropylaminophenyl) imidazole] here?
Answer: 53 nM

Question: `CCOC/C=C/c1ccc(-c2nc(-c3ccc(NCC(C)C)cc3)c[nH]2)cc1` [Example 124, 2-[4-(3-ethoxy-trans-1-propen-1-yl)phenyl]-4-(4-N-isobutylphenyl) imidazole] was tested. Which EC50 (CEM/VLB1000 cell line [1]; Homo sapiens) did it give?
Answer: 250 nM

Question: How did the EC50 (CEM/VLB1000 cell line [1]; Homo sapiens) turn out when `CCOC/C=C/c1ccc(-c2nc(-c3ccc(NC)cc3)c(-c3ccc(N4CCOCC4)cc3)[nH]2)cc1` [Example 94, 2-[4-(3-ethoxy-trans-1-propen-1-yl)phenyl]-4-(4-N-methylaminophenyl) -5(4-N-morpholinophenyl) imidazole] was run?
Answer: 250 nM

Question: Which EC50 (CEM/VLB1000 cell line [1]; Homo sapiens) does the source give for `CNc1ccc(-c2nc(-c3ccc(/C=C/C(=O)OC)cc3)[nH]c2-c2ccc(N3CCCCC3)cc2)cc1` [Example 68, 2-(trans-2-methoxycarbonyl-ethenylphenyl) -4-(4-N-methylaminophenyl)5-(4-piperidinophenyl) imidazole] here?
Answer: 390 nM

Question: `CNc1ccc(-c2[nH]c(-c3ccc(/C=C/c4nc5ccccc5o4)cc3)nc2-c2ccc(N(C)C)cc2)cc1` [Example 57, 2-[trans-2-(2-benzoxazolyl)ethenylphenyl]-4-(4-N,N-dimethylaminophenyl)-5-(4-N-methylaminophenyl) imidazole] was tested. Which EC50 (CEM/VLB1000 cell line [1]; Homo sapiens) did it give?
Answer: 210 nM

Question: For `COCCNc1ccc(-c2[nH]c(-c3ccc(/C=C/c4nc5ccccc5o4)cc3)nc2-c2ccc(N(C)C)cc2)cc1` [Example 61, 2-[trans-2-(2-benzoxazolyl)ethenylphenyl]-4-(4-N,N-dimethylaminophenyl)-5-[4-(2-methoxyethylamino)phenyl] imidazole], which EC50 (CEM/VLB1000 cell line [1]; Homo sapiens) is on record?
Answer: 160 nM

Question: `CCN(CC)c1ccc(-c2nc(-c3ccc(/C=C/c4nc5ccccc5o4)cc3)[nH]c2-c2ccc(NC)cc2)cc1` [Example 58, 2-[trans-2-(2-benzoxazolyl)ethenylphenyl]-4-(4-N,N-diethylaminophenyl)-5-(4-N-methylaminophenyl) imidazole] was tested. Which EC50 (CEM/VLB1000 cell line [1]; Homo sapiens) did it give?
Answer: 470 nM

Question: Which EC50 (CEM/VLB1000 cell line [1]) does the source give for `CNc1ccc(-c2[nH]c(-c3ccc(/C=C/COc4ccc(OC)c(OC)c4)cc3)nc2-c2ccc(N(C)C)cc2)cc1` [Example 79, 2-{4-[3-(3,4-dimethoxy-phenoxy)-trans-1-propen-1-yl]phenyl}-4-(4-N-dimethylaminophenyl)-5-(4-N-methylaminopheny) imidazole] here?
Answer: 1210 nM

Question: `CCOC/C=C/c1ccc(-c2nc(-c3ccc(N(C)C)cc3)c(-c3ccc(N4CCCC4)cc3)[nH]2)cc1` [Example 90, 2-[4-(3-ethoxy-trans-1-propen-1-yl)phenyl]-4-(4-N-dimethylaminophenyl)-5-(4-pyrrolidinophenyl) imidazole] was tested. Which EC50 (CEM/VLB1000 cell line [1]; Homo sapiens) did it give?
Answer: 120 nM

Question: With `COCCNc1ccc(-c2[nH]c(-c3ccc(/C=C/C#N)cc3)nc2-c2ccc(N(C)C)cc2)cc1` [Example 65] as the compound, how does the EC50 (CEM/VLB1000 cell line [1]; Homo sapiens) read?
Answer: 250 nM

Question: With `CCOC/C=C/c1ccc(-c2nc(-c3ccc(N(CC)CC)cc3)c[nH]2)cc1` [Example 108, 2-[4-(3-ethoxy-trans-1-propen-1-yl)phenyl]-4-(4-N,N-diethylphenyl) imidazole] as the compound, how does the EC50 (CEM/VLB1000 cell line [1]; Homo sapiens) read?
Answer: 300 nM

Question: With `CCN(CC)Cc1ccc(-c2[nH]c(-c3ccc(/C=C/C(=O)OC)cc3)nc2-c2ccc(C)cc2)cc1` [Example 99, 2-[4-trans-(2-methoxycarbonyl-ethenyl)phenyl]-4-(p-tolyl)-5-(4-N,N-diethylaminomethylphenyl) imidazole] as the compound, how does the EC50 (CEM/VLB1000 cell line [1]; Homo sapiens) read?
Answer: 290 nM

Question: How did the EC50 (CEM/VLB1000 cell line [1]; Homo sapiens) turn out when `CNc1ccc(-c2[nH]c(-c3ccc(/C=C/C(=O)OC)cc3)nc2-c2ccc(-n3ccnc3)cc2)cc1` [Example 70, 2-(trans-2-methoxycarbonyl-ethenylphenyl)-4-[4-(1-imidazolyl)phenyl]-5(4-N-methylaminophenyl) imidazole] was run?
Answer: 500 nM
